Measurements: patent US6737383B1, “Herbicidal oxadiazolidines” (priority 1999, dated 2004)

Tests used:
bedstraw = assay: Test B pre/postemergence bedstraw; type: in vivo, Galium aparine; settings: for Bedstraw plant response rating: Postemergence; for Plant response rating, Bedstraw: Preemergence
Method in brief: (§1)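 Response is a visual 0-to-10 score relative to untreated plants, where 0 means no effect and 10 means complete control, taken twelve to sixteen days after application. Treatments went onto soil at planting and onto foliage of 1- to 4-leaf plants, using a surfactant-containing non-phytotoxic solvent.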

rape = assay: Test B pre/postemergence rape; type: in vivo, Brassica napus
Method in brief: as §1

corn = assay: Test B pre/postemergence corn; type: in vivo, Zea mays; settings: for Corn plant response rating: Postemergence; for Plant response rating, Corn: Preemergence
Method in brief: as §1

soybean = assay: Test B pre/postemergence soybean; type: in vivo, Glycine max
Method in brief: as §1

velvetleaf = assay: Test B pre/postemergence velvetleaf; type: in vivo, Abutilon theophrasti
Method in brief: as §1

surinam grass = assay: Test B pre/postemergence surinam grass; type: in vivo, Brachiaria decumbens
Method in brief: as §1

crabgrass = assay: Test B pre/postemergence crabgrass; type: in vivo, Digitaria sanguinalis
Method in brief: as §1

giant foxtail = assay: Test B pre/postemergence giant foxtail; type: in vivo, Setaria faberii
Method in brief: as §1

wheat = assay: Test B pre/postemergence wheat; type: in vivo, Triticum aestivum
Method in brief: as §1

cocklebur = assay: Test B pre/postemergence cocklebur; type: in vivo, Xanthium strumarium
Method in brief: as §1

purple nutsedge = assay: Test B pre/postemergence purple nutsedge; type: in vivo, Cyperus rotundus
Method in brief: as §1

duck salad = assay: Test B flood test duck salad; type: in vivo, Heteranthera limosa
Method in brief: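 Plants were grown to the 2-leaf stage before treatment with test chemical, then held in a greenhouse for twelve to sixteen days. Injury was visually rated against untreated controls on a 0–10 scale, where 0 is no effect and 10 is complete control.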

sugar beet = assay: Test B pre/postemergence sugar beet; type: in vivo, Beta vulgaris
Method in brief: as §1

morningglory = assay: Test B pre/postemergence morningglory; type: in vivo, Ipomoea hederacea; settings: for Morningglory plant response rating: Postemergence; for Plant response rating, Morningglory: Preemergence
Method in brief: as §1

pigweed = assay: Test B pre/postemergence pigweed; type: in vivo, Amaranthus retroflexus
Method in brief: as §1

[1] = Rate 62 g/ha, scale 0 to 10, 0 is no effect, 10 is complete control
[2] = Rate 125 g/ha, scale 0 to 10 (0 no effect, 10 complete control)
[3] = Rate 250 g/ha, scale of 0 to 10 where 0 is no effect and 10 is complete control
[4] = Rate 125 g/ha, scale 0 to 10, 0 no effect, 10 complete control
[5] = Postemergence, Rate 62 g/ha, scale 0 to 10, 0 is no effect, 10 is complete control
[6] = Postemergence, Rate 250 g/ha, scale 0 to 10, 0 no effect, 10 complete control
[7] = Preemergence, Rate 62 g/ha, scale 0 to 10, 0 is no effect, 10 is complete control
[8] = Preemergence, Rate 125 g/ha, scale 0 to 10 (0 no effect, 10 complete control)
[9] = Preemergence, Rate 250 g/ha, scale of 0 to 10 where 0 is no effect and 10 is complete control
[10] = Preemergence, Rate 500 g/ha, scale 0 (no effect) to 10 (complete control)
[11] = Rate 125 g/ha, Postemergence, scale 0 to 10, 0 no effect, 10 complete control
[12] = Rate 500 g/ha, Postemergence, scale 0 to 10, 0 no effect, 10 complete control
[13] = Rate 250 g/ha, scale 0 to 10, 0 no effect, 10 complete control
[14] = Rate 500 g/ha, scale 0 to 10, 0 no effect, 10 complete control

Cc1cccc(Cl)c1-n1c(=O)on(C(=O)N(c2ccc(F)cc2)C(C)C)c1=O [Compound 53]
5: Plant response rating, Crabgrass (crabgrass; [8]) | Morningglory plant response rating (morningglory; [13])
8: Plant response rating, Giant foxtail (giant foxtail; [9])
7: Plant response rating, Crabgrass (crabgrass; [9])
6: Crabgrass plant response rating (crabgrass; [6]) | Morningglory plant response rating (morningglory; [14]) | Redroot pigweed plant response rating (pigweed; [6])
10: Crabgrass plant response rating (crabgrass; [10]) | Crabgrass plant response rating (crabgrass; [12]) | Giant foxtail plant response rating (giant foxtail; [10]) | Redroot pigweed plant response rating (pigweed; [12])
2: Bedstraw plant response rating (bedstraw; [1]) | Plant response rating, B. signalgrass (surinam grass; [9]) | Sugarbeets plant response rating (sugar beet; [12])
— 0 0 0 0: Cocklebur plant response rating (cocklebur; [10])
4: Crabgrass plant response rating (crabgrass; [11]) | Cocklebur plant response rating (cocklebur; [6]) | Cocklebur plant response rating (cocklebur; [12])
1: Velvetleaf plant response rating (velvetleaf; [6]) | Velvetleaf plant response rating (velvetleaf; [12]) | Crabgrass plant response rating (crabgrass; [5]) | Sugarbeets plant response rating (sugar beet; [6]) | Morningglory plant response rating (morningglory; [1]) | Morningglory plant response rating (morningglory; [4]) | Redroot pigweed plant response rating (pigweed; [5])
0: Plant response rating, Bedstraw (bedstraw; [1]) | Plant response rating, Bedstraw (bedstraw; [2]) | Plant response rating, Bedstraw (bedstraw; [3]) | Rape plant response rating (rape; [5]) | Rape plant response rating (rape; [6]) | Plant response rating, Rape (rape; [7]) | Plant response rating, Rape (rape; [8]) | Plant response rating, Rape (rape; [9]) | Rape plant response rating (rape; [10]) | Rape plant response rating (rape; [11]) | Corn plant response rating (corn; [1]) | Corn plant response rating (corn; [13]) | Plant response rating, Corn (corn; [1]) | Plant response rating, Corn (corn; [2]) | Plant response rating, Corn (corn; [3]) | Corn plant response rating (corn; [4]) | Corn plant response rating (corn; [14]) | Plant response rating, Soybean (soybean; [7]) | Plant response rating, Soybean (soybean; [8]) | Plant response rating, Soybean (soybean; [9]) | Soybean plant response rating (soybean; [10]) | Velvetleaf plant response rating (velvetleaf; [5]) | Plant response rating, Velvetleaf (velvetleaf; [7]) | Plant response rating, Velvetleaf (velvetleaf; [8]) | Plant response rating, Velvetleaf (velvetleaf; [9]) | Velvetleaf plant response rating (velvetleaf; [10]) | Velvetleaf plant response rating (velvetleaf; [11]) | B. signalgrass plant response rating (surinam grass; [5]) | B. signalgrass plant response rating (surinam grass; [6]) | Plant response rating, B. signalgrass (surinam grass; [7]) | Plant response rating, B. signalgrass (surinam grass; [8]) | B. signalgrass plant response rating (surinam grass; [11]) | B. signalgrass plant response rating (surinam grass; Rate 500 g/ha, Postemergence, scale of 0 to 10 where 0 is no effect and 10 is complete control) | Giant foxtail plant response rating (giant foxtail; [5]) | Wheat plant response rating (wheat; [5]) | Wheat plant response rating (wheat; [6]) | Plant response rating, Wheat (wheat; [7]) | Plant response rating, Wheat (wheat; [8]) | Plant response rating, Wheat (wheat; [9]) | Wheat plant response rating (wheat; [10]) | Wheat plant response rating (wheat; [11]) | Wheat plant response rating (wheat; [12]) | Cocklebur plant response rating (cocklebur; [5]) | Plant response rating, Cocklebur (cocklebur; [7]) | Plant response rating, Cocklebur (cocklebur; [9]) | Cocklebur plant response rating (cocklebur; [11]) | Nutsedge plant response rating (purple nutsedge; [5]) | Nutsedge plant response rating (purple nutsedge; [6]) | Plant response rating, Nutsedge (purple nutsedge; [7]) | Plant response rating, Nutsedge (purple nutsedge; [8]) | Plant response rating, Nutsedge (purple nutsedge; [9]) | Nutsedge plant response rating (purple nutsedge; [10]) | Nutsedge plant response rating (purple nutsedge; [11]) | Nutsedge plant response rating (purple nutsedge; [12]) | Ducksalad plant response rating (duck salad; [5]) | Ducksalad plant response rating (duck salad; Rate 125 g/ha, Postemergence section (flood test species), scale 0 to 10, 0 no effect, 10 complete control) | Ducksalad plant response rating (duck salad; Rate 500 g/ha, listed under Postemergence (flood test species), scale 0 to 10, 0 no effect, 10 complete control) | Ducksalad plant response rating (duck salad; flood test, listed under Postemergence, Rate 250 g/ha, scale 0 to 10, 0 no effect, 10 complete control) | Sugarbeets plant response rating (sugar beet; [5]) | Plant response rating, Sugarbeets (sugar beet; [7]) | Plant response rating, Sugarbeets (sugar beet; [8]) | Plant response rating, Sugarbeets (sugar beet; [9]) | Sugarbeets plant response rating (sugar beet; [11]) | Plant response rating, Morningglory (morningglory; [1]) | Plant response rating, Morningglory (morningglory; [2]) | Plant response rating, Morningglory (morningglory; [3]) | Plant response rating, Redroot pigweed (pigweed; [7]) | Plant response rating, Redroot pigweed (pigweed; [8]) | Plant response rating, Redroot pigweed (pigweed; [9])
3: Bedstraw plant response rating (bedstraw; [4]) | Rape plant response rating (rape; [12]) | Soybean plant response rating (soybean; [5]) | Soybean plant response rating (soybean; [6]) | Soybean plant response rating (soybean; [11]) | Soybean plant response rating (soybean; [12]) | B. signalgrass plant response rating (surinam grass; [10]) | Plant response rating, Crabgrass (crabgrass; [7]) | Giant foxtail plant response rating (giant foxtail; [6]) | Plant response rating, Giant foxtail (giant foxtail; [7]) | Plant response rating, Giant foxtail (giant foxtail; [8]) | Giant foxtail plant response rating (giant foxtail; [11]) | Giant foxtail plant response rating (giant foxtail; [12]) | Sugarbeets plant response rating (sugar beet; [10]) | Redroot pigweed plant response rating (pigweed; [10]) | Redroot pigweed plant response rating (pigweed; [11])
